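Compound exposure: 48 hours, 5 concentrations, 96-well plates. GI50 = concentration required for 50% inhibition of growth.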 Active and inactive are the calls of the source. Cut-off read from the data, not from the text of the source: active = GI50 up to about 1.1 µM and inactive = higher.
How the values were obtained:
Experiment in all cases: NCI-60 cell line screen, 48 h
[1] = test system: SN12C
[2] = test system: SF-268
[3] = test system: RXF 393
[4] = test system: SW-620
[5] = test system: MOLT-4
[6] = test system: MDA-MB-231
[7] = test system: NCI/ADR-RES
[8] = test system: OVCAR-5
[9] = test system: MCF7
[10] = test system: HOP-92
[11] = test system: HCC 2998
[12] = test system: HT-29
[13] = test system: Malme-3M
[14] = test system: SK-MEL-28
[15] = test system: HOP-62
[16] = test system: PC-3
[17] = test system: NCI-H522
[18] = test system: HL-60
[19] = test system: KM12
[20] = test system: HCT-116

COc1cccc2c1C(=O)c1c(O)c3c(c(O)c1C2=O)C[C@@](O)(C(=O)CO)CC3OC1CC(N)C(OC2CCCCO2)C(C)O1 (stereo not given in full)
GI50 [1]: 1.27 µM (inactive) | GI50 [2]: 0.785 µM (active) | GI50 [3]: 1.48 µM (inactive) | GI50 [4]: 0.265 µM (active) | GI50 [5]: 0.0315 µM (active) | GI50 [6]: 0.0802 µM (active) | GI50 [7]: 0.959 µM (active) | GI50 [8]: 1.71 µM (inactive) | GI50 [9]: 0.001 µM (active) | GI50 [10]: 0.0715 µM (active) | GI50 [11]: 7.19 µM (inactive) | GI50 [12]: 0.853 µM (active) | GI50 [13]: 0.664 µM (active) | GI50 [14]: 1.5 µM (inactive) | GI50 [15]: 0.144 µM (active) | GI50 [16]: 0.0461 µM (active) | GI50 [17]: 0.541 µM (active) | GI50 [18]: 0.207 µM (active) | GI50 [19]: 0.0399 µM (active) | GI50 [20]: 0.324 µM (active)

CC(C)NC(=O)OCc1c(COC(=O)NC(C)C)c(-c2ccc[n+](COC(=O)C(C)(C)C)c2)n2c1CCC2
GI50 [1]: 54.1 µM (inactive) | GI50 [2]: 57.7 µM (inactive) | GI50 [3]: 30.5 µM (inactive) | GI50 [4]: > 100 µM (inactive) | GI50 [5]: 48.2 µM (inactive) | GI50 [6]: > 100 µM (inactive) | GI50 [7]: > 73.1 µM (inactive) | GI50 [8]: > 100 µM (inactive) | GI50 [9]: 57.5 µM (inactive) | GI50 [10]: > 91.6 µM (inactive) | GI50 [11]: > 100 µM (inactive) | GI50 [12]: > 100 µM (inactive) | GI50 [13]: > 100 µM (inactive) | GI50 [14]: > 100 µM (inactive) | GI50 [15]: > 71.1 µM (inactive) | GI50 [16]: > 86.7 µM (inactive) | GI50 [17]: 35 µM (inactive) | GI50 [18]: > 53.2 µM (inactive) | GI50 [19]: > 100 µM (inactive) | GI50 [20]: > 91.6 µM (inactive)

O=C(/C=C/c1ccc2c(c1)OCO2)CC(=O)C(=O)c1c[nH]c2ccccc12
GI50 [1]: 45.8 µM (inactive) | GI50 [2]: 37.2 µM (inactive) | GI50 [3]: 31.6 µM (inactive) | GI50 [4]: 29.4 µM (inactive) | GI50 [5]: 20.7 µM (inactive) | GI50 [6]: 39.4 µM (inactive) | GI50 [7]: > 100 µM (inactive) | GI50 [8]: 77.4 µM (inactive) | GI50 [9]: 32.2 µM (inactive) | GI50 [10]: 81.7 µM (inactive) | GI50 [11]: 16.3 µM (inactive) | GI50 [12]: 36.3 µM (inactive) | GI50 [13]: > 100 µM (inactive) | GI50 [14]: > 100 µM (inactive) | GI50 [15]: 41.6 µM (inactive) | GI50 [16]: 37 µM (inactive) | GI50 [17]: 68.5 µM (inactive) | GI50 [18]: 29.2 µM (inactive) | GI50 [19]: 33.4 µM (inactive) | GI50 [20]: 31.8 µM (inactive)

CC12CC3OC(=O)C1COC14OC5(C2C1=O)C(O)(CCC1C4CC2OC24CC=CC(=O)C14C)C(=O)OC35C (stereo not given)
GI50 [1]: 21.5 µM (inactive) | GI50 [2]: 36.7 µM (inactive) | GI50 [3]: 3.99 µM (inactive) | GI50 [4]: 12.4 µM (inactive) | GI50 [5]: 15.5 µM (inactive) | GI50 [6]: 18.5 µM (inactive) | GI50 [7]: 38.1 µM (inactive) | GI50 [8]: 18.4 µM (inactive) | GI50 [9]: 8.85 µM (inactive) | GI50 [10]: 21.8 µM (inactive) | GI50 [11]: 18.7 µM (inactive) | GI50 [12]: 28.5 µM (inactive) | GI50 [13]: 18.5 µM (inactive) | GI50 [14]: 8.47 µM (inactive) | GI50 [15]: 20.9 µM (inactive) | GI50 [16]: 20.3 µM (inactive) | GI50 [17]: 5.6 µM (inactive) | GI50 [18]: 8.04 µM (inactive) | GI50 [19]: 17.3 µM (inactive) | GI50 [20]: 11.6 µM (inactive)

CCCCN(c1ccccc1)c1ncnc2c1cnn2C
GI50 [1]: 65 µM (inactive) | GI50 [2]: 34.8 µM (inactive) | GI50 [3]: 23.4 µM (inactive) | GI50 [4]: 29.2 µM (inactive) | GI50 [5]: 8.69 µM (inactive) | GI50 [6]: 26.6 µM (inactive) | GI50 [7]: 22.5 µM (inactive) | GI50 [8]: 47.4 µM (inactive) | GI50 [9]: 32.4 µM (inactive) | GI50 [10]: 25.7 µM (inactive) | GI50 [11]: 36.8 µM (inactive) | GI50 [12]: 29.9 µM (inactive) | GI50 [13]: 25.2 µM (inactive) | GI50 [14]: 38.6 µM (inactive) | GI50 [15]: 38.8 µM (inactive) | GI50 [16]: 27.5 µM (inactive) | GI50 [17]: 19.9 µM (inactive) | GI50 [18]: 19.1 µM (inactive) | GI50 [19]: 46 µM (inactive) | GI50 [20]: 40.6 µM (inactive)

Fc1cc2nc3n(c2cc1F)C(c1c(F)cccc1F)SC3 (stereo not given)
GI50 [1]: 51.9 µM (inactive) | GI50 [2]: 74 µM (inactive) | GI50 [3]: 26.9 µM (inactive) | GI50 [4]: 45 µM (inactive) | GI50 [5]: 27.1 µM (inactive) | GI50 [6]: 84.5 µM (inactive) | GI50 [7]: 35.4 µM (inactive) | GI50 [8]: 53.3 µM (inactive) | GI50 [9]: 31.4 µM (inactive) | GI50 [10]: 38.8 µM (inactive) | GI50 [11]: 68.4 µM (inactive) | GI50 [12]: 34.8 µM (inactive) | GI50 [13]: 50.8 µM (inactive) | GI50 [14]: 43 µM (inactive) | GI50 [15]: 67.9 µM (inactive) | GI50 [16]: 37.3 µM (inactive) | GI50 [17]: 24.9 µM (inactive) | GI50 [18]: 16.8 µM (inactive) | GI50 [19]: 41.1 µM (inactive) | GI50 [20]: 21.8 µM (inactive)

O=C1N/C(=N\N=C\c2ccccc2)C(c2ccccc2)O1 (stereo not given)
GI50 [1]: 71.1 µM (inactive) | GI50 [2]: 52.2 µM (inactive) | GI50 [3]: 80 µM (inactive) | GI50 [4]: 59.4 µM (inactive) | GI50 [5]: 25.5 µM (inactive) | GI50 [6]: 88.5 µM (inactive) | GI50 [7]: 33.3 µM (inactive) | GI50 [8]: > 100 µM (inactive) | GI50 [9]: 68.4 µM (inactive) | GI50 [10]: > 100 µM (inactive) | GI50 [11]: 17.1 µM (inactive) | GI50 [12]: 53 µM (inactive) | GI50 [13]: > 100 µM (inactive) | GI50 [14]: > 100 µM (inactive) | GI50 [15]: 65.6 µM (inactive) | GI50 [16]: 61.8 µM (inactive) | GI50 [17]: > 100 µM (inactive) | GI50 [18]: 30.1 µM (inactive) | GI50 [19]: > 100 µM (inactive) | GI50 [20]: 37.3 µM (inactive)

CCCCCCCCCCCCC1NC(=N)NC2(CCCO2)C1C(=O)OC (stereo not given)
GI50 [1]: 8.02 µM (inactive) | GI50 [2]: 3.84 µM (inactive) | GI50 [3]: 3 µM (inactive) | GI50 [4]: 1.97 µM (inactive) | GI50 [5]: 1.75 µM (inactive) | GI50 [6]: 4.12 µM (inactive) | GI50 [7]: 17.6 µM (inactive) | GI50 [8]: 8.17 µM (inactive) | GI50 [9]: 2.9 µM (inactive) | GI50 [10]: 5.09 µM (inactive) | GI50 [11]: 6.37 µM (inactive) | GI50 [12]: 1.92 µM (inactive) | GI50 [13]: 2.23 µM (inactive) | GI50 [14]: 5.52 µM (inactive) | GI50 [15]: 7.18 µM (inactive) | GI50 [16]: 1.67 µM (inactive) | GI50 [17]: 3.45 µM (inactive) | GI50 [18]: 1.53 µM (inactive) | GI50 [19]: 1.84 µM (inactive) | GI50 [20]: 2.47 µM (inactive)

From ChEMBL document CHEMBL1201862, “PubChem BioAssay data set” (2004)
